How the values were obtained:
M1 muscarinic receptor = molecular target: T1, M1 muscarinic receptor (Homo sapiens, UniProt P11229); test: Functional mobilization of intracellular calcium (FLIPR), M1-CHO cells; format: cell-based; conditions: for Emax: 100% efficacy is the maximum response obtained using Carbachol as a control; for M1 Activity: M1-CHO cells, FLIPR calcium mobilization
T1 construct: expressed in transfected cells; host or cells: CHO (M1-CHO)
T1 sequence (P11229 1-460): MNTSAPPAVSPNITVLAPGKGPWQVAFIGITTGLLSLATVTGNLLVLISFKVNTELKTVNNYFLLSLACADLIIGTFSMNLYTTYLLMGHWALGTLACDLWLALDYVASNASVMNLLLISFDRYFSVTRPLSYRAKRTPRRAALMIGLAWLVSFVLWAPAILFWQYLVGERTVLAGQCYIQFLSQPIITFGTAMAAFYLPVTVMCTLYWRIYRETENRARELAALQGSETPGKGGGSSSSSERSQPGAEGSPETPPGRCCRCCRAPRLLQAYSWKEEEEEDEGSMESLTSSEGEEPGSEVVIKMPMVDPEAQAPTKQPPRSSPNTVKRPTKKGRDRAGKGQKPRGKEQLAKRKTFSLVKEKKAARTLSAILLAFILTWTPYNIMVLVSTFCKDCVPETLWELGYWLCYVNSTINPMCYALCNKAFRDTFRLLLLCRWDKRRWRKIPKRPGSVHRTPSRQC
In short: (§1)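 Calcium flux recorded 60 s (ex 488, em 540 nm) in dye-loaded M1- or M4-CHO cells in pH 7.4 buffer with 1 mM probenecid. Inhibition measured against carbachol EC80 after 15 min compound pre-incubation or co-addition; agonism measured by compound addition alone. Final DMSO 0.5%.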

M4 muscarinic receptor = molecular target: T2, M4 muscarinic receptor (Homo sapiens, UniProt P08173); test: Functional mobilization of intracellular calcium (FLIPR), M4-CHO cells; format: cell-based; conditions: for Emax: 100% efficacy is the maximum response obtained using Carbachol as a control; for M4 Activity: M4-CHO cells, FLIPR calcium mobilization
T2 construct: expressed in transfected cells; host or cells: CHO (M4-CHO)
T2 sequence (P08173 1-479): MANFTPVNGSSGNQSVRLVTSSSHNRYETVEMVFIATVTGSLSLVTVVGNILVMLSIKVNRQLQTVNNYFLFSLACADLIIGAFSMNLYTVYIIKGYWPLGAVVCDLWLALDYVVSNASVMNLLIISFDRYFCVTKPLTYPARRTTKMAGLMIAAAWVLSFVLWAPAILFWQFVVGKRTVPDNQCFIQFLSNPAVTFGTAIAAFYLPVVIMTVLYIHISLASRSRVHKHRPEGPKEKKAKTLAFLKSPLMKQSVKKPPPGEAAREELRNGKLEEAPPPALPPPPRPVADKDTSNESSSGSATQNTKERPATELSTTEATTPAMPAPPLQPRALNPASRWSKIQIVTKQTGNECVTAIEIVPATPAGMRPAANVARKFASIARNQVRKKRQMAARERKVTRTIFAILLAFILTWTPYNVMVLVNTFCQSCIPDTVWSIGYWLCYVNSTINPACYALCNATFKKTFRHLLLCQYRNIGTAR
In short: as §1

| Structure (SMILES) | Emax (M1 muscarinic receptor) [%] | M1 Activity (M1 muscarinic receptor) | Emax (M4 muscarinic receptor) [%] | M4 Activity (M4 muscarinic receptor) |
| --- | --- | --- | --- | --- |
| CCOC(=O)N1C2CCC1CC(N1CCC3(CC1)CN(c1ccc(C)c(C)c1)Cc1ccccc13)C2 (centres unmarked) [compound 12] | 25 to 100 | +++ (activity was measured to be less than 1.0 μM) | 25 to 100 | +++ (activity was measured to be less than 1.0 μM) |
| CCOC(=O)N1CCC(CN2CCC3(CC2)CN(C(=O)Oc2ccc(F)cc2)Cc2ccccc23)CC1 [compound 72] | 25 to 100 | +++ (activity was measured to be less than 1.0 μM) | 25 to 100 | +++ (activity was measured to be less than 1.0 μM) |
| CC(=O)N1Cc2ccccc2C2(CCN(C3CCSCC3)CC2)C1 [compound 268] | 25 to 100 | ++ (activity was measured to be from 1.0 μM to 5.0 μM) | 25 to 100 | ++ (activity was measured to be from 1.0 μM to 5.0 μM) |
| CCCCC(=O)N1Cc2ccccc2C2(CCN(C3CCN(C(=O)OCC)CC3)CC2)C1 [compound 122] | 25 to 100 | +++ (activity was measured to be less than 1.0 μM) | 25 to 100 | +++ (activity was measured to be less than 1.0 μM) |
| CCCOC(=O)N1C2CCC1CC(N1CCC3(CC1)CN(C(=O)OC1CCC1)Cc1ccccc13)C2 (centres unmarked) [compound 189] | 25 to 100 | +++ (activity was measured to be less than 1.0 μM) | 25 to 100 | +++ (activity was measured to be less than 1.0 μM) |
| CCOC(=O)N1CCC(N2CCC3(CC2)CN(C(=O)CC)Cc2ccccc23)CC1 [compound 6] | 25 to 100 | +++ (activity was measured to be less than 1.0 μM) | 25 to 100 | +++ (activity was measured to be less than 1.0 μM) |
| CC(=O)N1Cc2ccccc2C2(CCN(Cc3ccoc3)CC2)C1 [compound 139] | < 25 | + (activity was measured to be greater than 5.0 μM) | < 25 | + (activity was measured to be greater than 5.0 μM) |
| CC(=O)Oc1cccc(CN2CCC3(CC2)CN(C(C)=O)Cc2ccccc23)c1 [compound 188] | < 25 | + (activity was measured to be greater than 5.0 μM) | < 25 | + (activity was measured to be greater than 5.0 μM) |
| CCCOC(=O)N1C2CCC1CC(N1CCC3(CC1)CN(C(C)=O)Cc1ccccc13)C2 (centres unmarked) [compound 357] | 25 to 100 | +++ (activity was measured to be less than 1.0 μM) | 25 to 100 | +++ (activity was measured to be less than 1.0 μM) |
| CCNC(=O)N1Cc2ccccc2C2(CCN(CC3CCN(C(=O)OCC)CC3)CC2)C1 [compound 91] | 25 to 100 | +++ (activity was measured to be less than 1.0 μM) | 25 to 100 | +++ (activity was measured to be less than 1.0 μM) |
| CCNC(=O)N1Cc2ccccc2C2(CCN(C3CCN(C(=O)OCC)CC3)CC2)C1 [compound 168] | 25 to 100 | +++ (activity was measured to be less than 1.0 μM) | 25 to 100 | +++ (activity was measured to be less than 1.0 μM) |
| CCOC(=O)N1CCC(N2CCC3(CC2)CN(C(=O)C2(C)CC2)Cc2ccccc23)CC1 [compound 295] | 25 to 100 | ++ (activity was measured to be from 1.0 μM to 5.0 μM) | < 25 | ++ (activity was measured to be from 1.0 μM to 5.0 μM) |
| CC(=O)N1Cc2ccccc2C2(CCN(Cc3cccnc3)CC2)C1 [compound 274] | < 25 | + (activity was measured to be greater than 5.0 μM) | < 25 | + (activity was measured to be greater than 5.0 μM) |
| CCOC(=O)N1CCC(N2CCC3(CC2)CN(C(=O)OCCOC)Cc2ccccc23)CC1 [compound 23] | 25 to 100 | +++ (activity was measured to be less than 1.0 μM) | 25 to 100 | +++ (activity was measured to be less than 1.0 μM) |

Reference: patent publication US7863449B2, “Modulators of muscarinic receptors” (Vertex Pharmaceuticals Incorporated, priority 2004, dated 2011)
